Patent US12472144B2, “Pharmaceutical composition comprising eliglustat” (Amneal Pharmaceuticals LLC, priority 2017, dated 2025)
Read-outs that look alike come from different tables or passages of the source. One block for each compound: values may come before it.

How the values were obtained:
[1] = presence of food; cited from earlier work
[2] = Comparative pharmacokinetic study of sublingual thin film and oral formulation in rabbits; type: in vivo; conditions: rabbit, blood, male New Zealand White Rabbits
Excerpt: Animals. […] No non-disintegrated film fragments were observed.

[3] = in vitro, human; cited from earlier work
[4] = cited from earlier work; for oral bioavailability: significant first pass metabolism
[5] = BCS class I drug substance; cited from earlier work
[6] = other: sublingual, sublingual route, oral thin film, 10 mg
[7] = oral dosing by gavage as a solution

AUC(0-inf) [2, 6]: 232 ± 106 ng·h/mL
AUC(0-t) [2, 6]: 226 ± 107 ng·h/mL
Cmax [2, 6]: 79.4 ± 51.6 ng/mL
MRT last [2, 6]: 2.72 ± 0.359 h
Tmax [2, 6]: 0.667 ± 0.289 h
half-life [2, 6]: 2.55 ± 0.511 h
AUC(0-inf) [2, 7]: 9.6 ± 6.04 ng·h/mL
AUC(0-t) [2, 7]: 6.31 ± 4.85 ng·h/mL
Cmax [2, 7]: 3.31 ± 2.11 ng/mL
MRT last [2, 7]: 1.53 ± 0.546 h
Tmax [2, 7]: 0.583 ± 0.382 h
half-life [2, 7]: 2.35 ± 0.341 h
Structure (SMILES): CCCCCCCC(=O)N[C@H](CN1CCCC1)[C@H](O)c1ccc2c(c1)OCCO2.O=C(O)C(O)C(O)C(=O)O [Eliglustat tartrate, N-((1R,2R)-1-(2,3-dihydrobenzo [b] [1,4]dioxin-6-yl)-1-hydroxy-3-(pyrrolidin-1-yl)propan-2-yl) octanamide (2R,3R)-2,3-dihydroxysuccinate]
effect of food on extent of absorption [1]: did not affect the extent of absorption

Structure (SMILES): CCCCCCCC(=O)N[C@H](CN1CCCC1)[C@H](O)c1ccc2c(c1)OCCO2 [Genz-99067]
first-pass effect indicated by metabolic stability [3]: significant first-pass effect

Structure (SMILES): CCCCCCCC(=O)N[C@H](CN1CCCC1)[C@H](O)c1ccc2c(c1)OCCO2 [eliglustat]
absolute bioavailability ([4]; CERDELGA capsule, CHMP European Assessment report): 4.49%±4.13
oral bioavailability [4]: less than 5%
oral bioavailability ([4]; listed as Eliglustat): < 5%
solubility [5]: high
